Laboratory results from US20260183274A1, “PDK1 REGULATORY COMPOUND AND COMPOSITION CONTAINING THE SAME” (PROVIBIO CO., LTD., priority 2024, published 2026).
Entries after “also recorded” stand apart in the source; their conditions may differ.

Tests used:
[1] = biological target: T1, PDK1 (phosphoinositide-dependent kinase 1) (Homo sapiens, UniProt O15530); assay: PDK1 phosphorylation (pPDK1) by flow cytometry in SU-DHL-8 cells; format: cell-based; settings: SU-DHL-8, 24 hours, vs control group, FIG. 3
T1 construct: endogenous in cells; host or cells: SU-DHL-8 (ATCC CRL-2961)
T1 sequence (O15530 1-556): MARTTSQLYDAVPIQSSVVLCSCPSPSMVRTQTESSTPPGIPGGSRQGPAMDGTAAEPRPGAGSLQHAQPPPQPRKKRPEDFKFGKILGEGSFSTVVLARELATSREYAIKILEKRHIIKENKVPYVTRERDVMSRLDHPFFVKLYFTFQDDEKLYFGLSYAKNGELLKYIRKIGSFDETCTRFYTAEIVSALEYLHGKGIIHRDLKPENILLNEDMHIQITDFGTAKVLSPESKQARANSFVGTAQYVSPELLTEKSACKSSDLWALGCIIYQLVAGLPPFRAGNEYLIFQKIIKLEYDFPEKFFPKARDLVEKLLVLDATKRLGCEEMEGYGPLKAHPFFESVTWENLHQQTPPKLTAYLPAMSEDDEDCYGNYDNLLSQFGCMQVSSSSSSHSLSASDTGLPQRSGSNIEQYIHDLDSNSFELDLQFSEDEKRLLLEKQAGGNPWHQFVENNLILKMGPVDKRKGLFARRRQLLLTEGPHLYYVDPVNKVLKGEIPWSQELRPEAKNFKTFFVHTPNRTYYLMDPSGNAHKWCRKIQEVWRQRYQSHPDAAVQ
Method: After stabilizing the cells, the compound of the present invention was added, and the cells were cultured for 24 hours.
After drug treatment, the cells were harvested, and the Fc receptor blocking process was performed. The cells were then fixed and permeabilized using the Intracellular Staining Kit (Cat. No. BD554715) from BD Biosciences. Subsequently, the intracellular pPDK1 was stained using the pPDK1-PE fluorescently labeled antibody (BD Biosciences).
Referring to the figure, the vertical axis represents the phosphorylation level of PDK1 (phospho-PDK1 expression level), and the horizontal axis denotes the concentration-dependent treatment conditions of each compound.

[2] = tested on: Human Colorectal Carcinoma cell line, HCT-116; assay: Relative cell viability CCK-8, HCT-116; format: cell-based; settings: 48 hours; for viability at 1 µM / viability at 10 µM / viability at 30 µM / viability at 50 µM: Homo sapiens, HCT-116
Method: (§1) Human-derived breast cancer cell line MCF-7, human-derived lung cancer cell line A549, human-derived colorectal cancer cell line HCT-116, human pancreatic cancer cell line AsPC-1, glioblastoma cell line A172, and melanoma cell line Malme-3M were obtained from the Korean Cell Bank. gastric cancer cell line SNU-719, and bladder cancer cell line T24 were cultured in RPMI-1640 medium containing 10% FBS.
(§2) Following stabilization, the cells were harvested using Trypsin-EDTA treatment, centrifuged at 1,200 rpm for 3 minutes, the supernatant was removed, and the cells were resuspended in the same medium. They were then seeded into a 96-well plate (Costar 96-well cell culture plate, Corning) at 100 μL per well, and the conditions were adjusted as indicated in Table 5.
(§3) The cells were cultured in a 5% CO2 incubator at 37° C. for 24 hours, and after stabilization of the cells, each plate was washed with 200 μL of PBS per well and treated with 50 μL of culture medium per well.
(§4) After that, 10 μL of CCK-8 was added to each well, and the plate was incubated again at 37° C. in a 5% CO2 incubator for 2 hours.
(§5) In other words, when the survival rate of untreated cells (DMSO) is set at 100%, the relative cell survival rate in each group treated with the drug at different concentrations is indicated.

[3] = tested on: Human Melanoma cancer cell, Malme-3M; assay: Relative cell viability CCK-8, Malme-3M; format: cell-based; settings: 48 hours
Method: as §1, §2, §3, §4, §5

[4] = tested on: Human Head and Neck cancer, Fadu; assay: Relative cell viability CCK-8, Fadu; format: cell-based; settings: Fadu cells, relative to untreated cells
Method: Human-derived head and neck cancer cell line Fadu and osteosarcoma cell line Saos-2 were cultured in MEM medium containing 10% FBS, 100 U/mL penicillin, and 100 μg/mL streptomycin.
as §2, §3, §4, §5

[5] = tested on: HCT-116 colon cancer cell lines; assay: Matrigel Invasion Assay, HCT-116; format: cell-based, human; settings: 24 hours treatment, FIG. 30
Method: To evaluate the metastasis inhibitory efficacy of the compounds of the present invention on HCT-116 colon cancer cell lines, an Invasion Assay using Matrigel was performed to assess the cells' invasion ability.
First, Matrigel was thawed on ice in RPMI-1640 medium without FBS, then diluted with DMEM at a ratio of 1:20.
The diluted Matrigel mixture was applied to the upper chamber at 100 μl per well, and 750 μl of RPMI-1640 without FBS was added to the lower chamber.
The plates were then incubated at 37° C. for 1 hour to allow the Matrigel to solidify.
After coating, the Matrigel mixture in the upper chamber was removed using a pipette, and the chamber was washed with RPMI without FBS.
Human-derived colorectal cancer cell line HCT-116, obtained from the Korean Cell Bank, was cultured in RPMI-1640 medium containing 10% FBS.
Following stabilization, the cells were harvested using Trypsin-EDTA treatment, centrifuged at 1,200 rpm for 3 minutes, the supernatant was removed, and the cells were resuspended in the same medium, the medium in the lower chamber was replaced with 750 μl of RPMI-1640 supplemented with 10% FBS, and the cells were seeded into the upper chamber at a density of 5×10^4 cells/well.
The cells were cultured for 24 hours after attachment, and then the compounds according to the present invention (G078, G085, G086, G088, G089, PBK-2024-010, PBK-2025-010, PBK-2025-013, PBK-2025-016) and the control substance DMSO were diluted and added to the upper chamber after removing the medium.
Additionally, the medium in the lower chamber was replaced with fresh RPMI-1640 containing FBS, and the culture was continued.
After an additional 24 hours, the medium was removed, and 1 ml of methanol was added for 10 minutes to fix the cells.
Subsequently, 1 ml of Hematoxylin was added and reacted for 5 minutes, followed by 1 ml of Eosin, which was reacted for 30 seconds. The sample was then washed with distilled water (DW).
After staining was complete, any remaining cells in the upper chamber were removed. Finally, the infiltrated cells were observed under a microscope, photographed, and the degree of infiltration was analyzed.

[6] = tested on: Human Kidney Cancer cell line, ACHN; assay: Relative cell viability CCK-8, ACHN; format: cell-based; settings: 48 hours
Method: Similarly, human-derived cervical cancer cell line HeLa and renal cancer cell line ACHN, obtained from the Korean Cell Bank, were cultured in DMEM medium containing 10% FBS, 100 U/mL penicillin, and 100 μg/mL streptomycin.
as §2, §3
The compounds according to the present invention or the control group (DMSO) were added at concentrations of 0, 10, 30, and 50 μM in 50 μL aliquots to the plates, and the plates were cultured at 37° C. in a 5% CO2 incubator for 48 hours.
as §4, §5

Compound: Nc1ncccc1C(=O)NCCCCCCCCCCCCF [Compound 57, 2-Amino-N-(12-fluoro-dodecyl)-nicotinamide]
- Inhibition of PDK1 phosphorylation (phospho-PDK1 expression level) [1]: exhibited an inhibitory effect on PDK1 phosphorylation

Compound: CC1(C)CN(CCCCCCCCCCCCC(=O)Nc2nc(N)c3[nH]cnc3n2)CCO1 [Compound 11, 12-[4-(2,2-dimethylmorpholin-4-yl)]dodecyl-N-(6-aminopurine-2-yl) carboxamide]
- Inhibition of PDK1 phosphorylation (phospho-PDK1 expression level) ([1]; listed as GO86): stronger PDK1 inhibition; also recorded: high inhibitory effects even at low concentrations
- Relative cell viability (%), HCT-116 ([2]; 1 μM): 21.36%
- Relative cell viability (%), HCT-116 ([2]; 10 μM): 24.91%
- Relative cell viability (%), HCT-116 ([2]; 30 μM): 24.78%
- Relative cell viability (%), HCT-116 ([2]; 50 μM): 25.26%
- Relative cell viability (%), Malme-3M ([3]; 1 μM): 44.06%
- Relative cell viability (%), Malme-3M ([3]; 10 μM): 37.40%
- Relative cell viability (%), Malme-3M ([3]; 30 μM): 36.80%
- Relative cell viability (%), Malme-3M ([3]; 50 μM): 38.87%
- Relative cell viability (%) ([4]; 1 μM): 2.08%
- Relative cell viability (%) ([4]; 10 μM): 9.68%
- Relative cell viability (%) ([4]; 30 μM): 8.51%
- Relative cell viability (%) ([4]; 50 μM): 4.78%
- Number of infiltrated cells (invasion) [5]: reduction in the number of infiltrated cells

Compound: Nc1ncccc1C(=O)NCCCCCCCCCCCCN1CCNCC1 [Compound 14, 2-Amino-N-(12-(piperazin-1-yl)dodecyl)nicotinamide]
- Inhibition of PDK1 phosphorylation (phospho-PDK1 expression level) ([1]; listed as GO88): stronger PDK1 inhibition; also recorded: high inhibitory effects even at low concentrations
- viability at 1 µM ([2]; 1 μM): 14.2%
- viability at 10 µM ([2]; 10 μM): 12.3%
- viability at 30 µM ([2]; 30 μM): 9.38%
- viability at 50 µM ([2]; 50 μM): 7.61%
- viability at 1 µM ([3]; Homo sapiens, Malme-3M, 1 μM): 43.7%
- viability at 10 µM ([3]; Homo sapiens, Malme-3M, 10 μM): 31.2%
- viability at 30 µM ([3]; Homo sapiens, Malme-3M, 30 μM): 16.3%
- viability at 50 µM ([3]; Homo sapiens, Malme-3M, 50 μM): 15.9%
- Relative cell viability (%) ([4]; 1 μM, listed as GO88, 1 µM): 7.05%
- Relative cell viability (%) ([4]; 10 μM, listed as GO88, 10 µM): 73.25%
- Relative cell viability (%) ([4]; 30 μM, listed as GO88, 30 µM): 57.64%
- Relative cell viability (%) ([4]; 50 μM, listed as GO88, 50 µM): 7.08%

Compound: Nc1ncccc1C(=O)NCCCCCCCCCCCCN1CCNCC1 [Compound 5, 2-Amino-N-(12-(piperazin-1-yl)dodecyl)-nicotinamide]
- viability at 1 µM [6]: 29.5%
- viability at 10 µM [6]: 30%
- viability at 30 µM [6]: 29.2%
- viability at 50 µM [6]: 28.3%
- Relative cell viability (%) ([4]; 10 μM, listed as GO78, 10 µM): 6.63%
- Relative cell viability (%) ([4]; 30 μM, listed as GO78, 30 µM): 4.93%
- Relative cell viability (%) ([4]; 50 μM, listed as GO78, 50 µM): 0.99%
- viability at 1 µM ([4]; Homo sapiens, FaDu, 1 μM): 4.18%
- Number of infiltrated cells (invasion) [5]: reduction in the number of infiltrated cells

Compound: Nc1nc(NC(=O)CCCCCCCCCCCCN2CCN(CCO)CC2)nc2nc[nH]c12 [Compound 15, 12-[4-(2-hydroxyethyl)piperazin-1-yl]dodecyl-N-(6-aminopurine-2-yl) carboxamide]
- viability at 1 µM ([2]; 1 μM): 12.1%
- viability at 10 µM ([2]; 10 μM): 11.5%
- viability at 30 µM ([2]; 30 μM): 10%
- viability at 50 µM ([2]; 50 μM): 9.08%
- viability at 1 µM [6]: 31.7%
- viability at 10 µM [6]: 30%
- viability at 30 µM [6]: 30.6%
- viability at 50 µM [6]: 30.3%
- viability at 1 µM ([4]; Homo sapiens, FaDu, 1 μM): 4.15%
- viability at 10 µM ([4]; Homo sapiens, FaDu, 10 μM): 29.3%
- viability at 30 µM ([4]; Homo sapiens, FaDu, 30 μM): 41.5%
- viability at 50 µM ([4]; Homo sapiens, FaDu, 50 μM): 9.44%
- Number of infiltrated cells (invasion) [5]: reduction in the number of infiltrated cells

Compound: Nc1ncccc1C(=O)NCCCCCCCCCCCCN1CCOCC1 [Compound 2, 2-Amino-N-(12-morpholin-4-yl-dodecyl)-nicotinamide]
- Inhibition of PDK1 phosphorylation (phospho-PDK1 expression level) ([1]; listed as GO48): stronger PDK1 inhibition; also recorded: high inhibitory effects even at low concentrations
